Assay results from patent US6645982B2, “Crystal forms of 6-[(4-chloro-phenyl)-hydroxy-(3-methyl-3H-imidazol-4-yl)-methyl]-4-(3-ethynyl-phenyl)-1-methyl-1H-quinolin-2-one, 2,3-dihydroxybutanedioate salts and method of production” (Pfizer Inc, priority 2000, dated 2003).

Assay: solubility in gastric fluids
Assay type: physicochemical
Conditions: compared to other salts of the compound of formula I, i.e., HCl

C#Cc1cccc(-c2cc(=O)n(C)c3ccc(C(O)(c4ccc(Cl)cc4)c4cncn4C)cc23)c1.O=C(O)C(O)C(O)C(=O)O (stereo not shown) [6-[(4-chloro-phenyl)-hydroxy-(3-methyl-3H-imidazol-4-yl)-methyl]-4-(3-ethynyl-phenyl)-1-methyl-1H-quinolin-2-one, 2,3-dihydroxybutanedioate (1:1)]
solubility in gastric fluids: improved solubility
